Measurements taken from patent publication US11647993B2, “Oral fluid collector” (Research Triangle Institute, priority 2017, dated 2023).
Read-outs that look alike come from different tables or passages of the source.

Assays:
[1] = Stability of BZE in matrices over pH; assay type: physicochemical; conditions: most matrices, broad range of pH values
Excerpt: Based on the above discussion, the stabilization of parent cocaine in a matrix such as oral fluid, which contains esterases possibly derived from crevicular fluid, is challenging unless appropriate buffering at a pH where parent cocaine is stable is employed.

[2] = tetrahydrate soluble in hot water; cited from earlier work
[3] = Stability of parent THC spiked into neat human oral fluid, with or without the reagent component; assay type: physicochemical
[4] = oral fluid, over 14 days, cited from earlier work
[5] = pH of greatest stability; conditions: parent THC by itself
[6] = two collection devices, cited from earlier work
[7] = aqueous solution (cocaine); labile esters (heroin, 6-AM); cited from earlier work

CN1[C@H]2CC[C@@H]1[C@@H](C(=O)O)[C@@H](OC(=O)c1ccccc1)C2 [BZE, benzoylecgonine]
stability [1]: stable
water solubility [2]: considerable water solubility

CCCCCc1cc(O)c2c(c1)OC(C)(C)[C@@H]1CCC(C)=C[C@@H]21 [THC, Δ^9-tetrahydrocannabinol]
loss of THC [3]: substantial loss
losses of THC ([4]; in the dark at room temperature): 20%
losses of THC ([4]; under fluorescent lights): greater than 50%
pH at which most stable [5]: ~7.5

COC(=O)[C@H]1[C@@H](OC(=O)c2ccccc2)C[C@@H]2CC[C@H]1N2C [cocaine]
cocaine degraded to BZE ([6]; within 48 hours): 26%
cocaine degraded to BZE ([6]; within 72 hours): 41%
pH of greatest stability / stabilization [7]: ~5

CC(=O)Oc1ccc2c3c1O[C@H]1[C@@H](OC(C)=O)C=C[C@H]4[C@@H](C2)N(C)CC[C@@]341 [heroin, diacetylmorphine]
pH of greatest stability / stabilization [7]: ~5.0
